Test results as given in ChEMBL document CHEMBL1914384, “Design, synthesis, and structure-activity relationship studies of highly potent novel benzoxazinyl-oxazolidinone antibacterial agents” (J Med Chem, 2011).
≈ marks a conversion by molar mass, not a printed value.

What was measured:
Assay type in all cases: functional
[1] = tested on: Staphylococcus epidermidis; assay: Antibacterial activity against methicillin-resistant Staphylococcus epidermidis after 16 hrs by agar dilution method
Enterococcus faecalis = assay: Antibacterial activity against Enterococcus faecalis after 16 hrs by agar dilution method
Streptococcus pneumoniae = assay: Antibacterial activity against penicillin-resistant Streptococcus pneumoniae after 16 hrs by agar dilution method
Staphylococcus aureus [2] = assay: Antibacterial activity against Staphylococcus aureus ATCC 29213 after 16 hrs by agar dilution method; conditions: ATCC 29213, 16 h
Staphylococcus aureus [3] = assay: Antibacterial activity against methicillin-resistant Staphylococcus aureus after 16 hrs by agar dilution method

Structure (SMILES) | MIC [1] [µg/mL] | MIC (Enterococcus faecalis) [µg/mL] | MIC (Streptococcus pneumoniae) [µg/mL] | MIC (Staphylococcus aureus [2]) [µg/mL] | MIC (Staphylococcus aureus [3]) [µg/mL]
CC(=O)NC[C@@H]1OC(=O)N2c3ccc(N4CCOCC4)cc3OC[C@@H]12 | 4 (≈ 11.5 µM) | 8 (≈ 23 µM) | 8 (≈ 23 µM) | 4 (≈ 11.5 µM) | 4 (≈ 11.5 µM)
CC(=O)NC[C@@H]1OC(=O)N2c3ccc(N4CCN(Cc5cccc([N+](=O)[O-])c5)CC4)cc3OC[C@@H]12 | > 16 | > 16 | > 16 | > 16 | > 16
CC(=O)NC[C@@H]1OC(=O)N2c3ccc(N4CCN(Cc5ccccc5[N+](=O)[O-])CC4)cc3OC[C@@H]12 | 8 (≈ 16.6 µM) | > 16 | > 16 | 8 (≈ 16.6 µM) | 8 (≈ 16.6 µM)
CC(=O)NC[C@@H]1OC(=O)N2c3ccc(N4CCN(Cc5ccncc5)CC4)cc3OC[C@@H]12 | > 16 | > 16 | > 16 | 16 (≈ 36.6 µM) | > 16
CC(=O)NC[C@@H]1OC(=O)N2c3ccc(N4CCN(Cc5cccnc5)CC4)cc3OC[C@@H]12 | > 16 | > 16 | > 16 | 16 (≈ 36.6 µM) | > 16
CC(=O)NC[C@@H]1OC(=O)N2c3ccc(N4CCN(Cc5ccccn5)CC4)cc3OC[C@@H]12 | > 16 | > 16 | > 16 | 16 (≈ 36.6 µM) | > 16
CC(=O)NC[C@@H]1OC(=O)N2c3ccc(N4CCN(Cc5ccco5)CC4)cc3OC[C@@H]12 | > 16 | > 16 | > 16 | > 16 | 16 (≈ 37.5 µM)
CC(=O)NC[C@@H]1OC(=O)N2c3ccc(N4CCN(Cc5ccoc5)CC4)cc3OC[C@@H]12 | 8 (≈ 18.8 µM) | > 16 | > 16 | 16 (≈ 37.5 µM) | > 8
CC(=O)NC[C@@H]1OC(=O)N2c3ccc(N4CCN(Cc5ccc([N+](=O)[O-])o5)CC4)cc3OC[C@@H]12 | 2 (≈ 4.24 µM) | > 16 | > 8 | 4 (≈ 8.48 µM) | 4 (≈ 8.48 µM)
CC(=O)NC[C@@H]1OC(=O)N2c3ccc(-c4cccs4)cc3OC[C@@H]12 | 1 (≈ 2.9 µM) | 4 (≈ 11.6 µM) | 1 (≈ 2.9 µM) | 1 (≈ 2.9 µM) | 1 (≈ 2.9 µM)
CC(=O)NC[C@@H]1OC(=O)N2c3ccc(-c4ccsc4)cc3OC[C@@H]12 | 2 (≈ 5.81 µM) | 4 (≈ 11.6 µM) | 2 (≈ 5.81 µM) | 2 (≈ 5.81 µM) | 2 (≈ 5.81 µM)
CC(=O)NC[C@@H]1OC(=O)N2c3ccc(-c4ccccc4)cc3OC[C@@H]12 | 1 (≈ 2.96 µM) | 2 (≈ 5.91 µM) | 0.5 (≈ 1.48 µM) | 0.5 (≈ 1.48 µM) | 0.5 (≈ 1.48 µM)
CC(=O)NC[C@@H]1OC(=O)N2c3ccc(-c4cccc([N+](=O)[O-])c4)cc3OC[C@@H]12 | 0.5 (≈ 1.3 µM) | 2 (≈ 5.22 µM) | 0.5 (≈ 1.3 µM) | 0.5 (≈ 1.3 µM) | 0.5 (≈ 1.3 µM)
CC(=O)NC[C@@H]1OC(=O)N2c3ccc(-c4ccc(C#N)cc4)cc3OC[C@@H]12 | 0.5 (≈ 1.38 µM) | 1 (≈ 2.75 µM) | 0.5 (≈ 1.38 µM) | 0.25 (≈ 0.688 µM) | 0.5 (≈ 1.38 µM)
CC(=O)NC[C@@H]1OC(=O)N2c3ccc(-c4ccc(C(C)=O)cc4)cc3OC[C@@H]12 | 0.5 (≈ 1.31 µM) | 1 (≈ 2.63 µM) | 2 (≈ 5.26 µM) | 1 (≈ 2.63 µM) | 1 (≈ 2.63 µM)
CC(=O)NC[C@@H]1OC(=O)N2c3ccc(-c4cccc(N)c4)cc3OC[C@@H]12 | 1 (≈ 2.83 µM) | 1 (≈ 2.83 µM) | 0.5 (≈ 1.41 µM) | 0.5 (≈ 1.41 µM) | 1 (≈ 2.83 µM)
CC(=O)NC[C@@H]1OC(=O)N2c3ccc(-c4ccncc4)cc3OC[C@@H]12 | 1 (≈ 2.95 µM) | 1 (≈ 2.95 µM) | 1 (≈ 2.95 µM) | 0.5 (≈ 1.47 µM) | 0.5 (≈ 1.47 µM)
CC(=O)NC[C@@H]1OC(=O)N2c3ccc(-c4cccnc4)cc3OC[C@@H]12 | 0.5 (≈ 1.47 µM) | 1 (≈ 2.95 µM) | 0.5 (≈ 1.47 µM) | 0.5 (≈ 1.47 µM) | 0.5 (≈ 1.47 µM)

Structure (SMILES) | MIC [1] [µg/mL] | MIC (Enterococcus faecalis) [µg/mL] | MIC (Streptococcus pneumoniae) [µg/mL] | MIC (Staphylococcus aureus [2]) [µg/mL] | MIC (Staphylococcus aureus [3]) [µg/mL]
CC(=O)NC[C@@H]1OC(=O)N2c3ccc(-c4cncnc4)cc3OC[C@@H]12 | 0.5 (≈ 1.47 µM) | 1 (≈ 2.94 µM) | 1 (≈ 2.94 µM) | 0.25 (≈ 0.735 µM) | 0.5 (≈ 1.47 µM)
COc1ncc(-c2ccc3c(c2)OC[C@H]2[C@H](CNC(C)=O)OC(=O)N32)c(OC)n1 | 1 (≈ 2.5 µM) | 1 (≈ 2.5 µM) | 1 (≈ 2.5 µM) | 1 (≈ 2.5 µM) | 1 (≈ 2.5 µM)
CC(=O)NC[C@@H]1OC(=O)N2c3ccc(-c4cnc(N)nc4)cc3OC[C@@H]12 | 1 (≈ 2.81 µM) | 2 (≈ 5.63 µM) | 1 (≈ 2.81 µM) | 1 (≈ 2.81 µM) | 1 (≈ 2.81 µM)
CC(=O)NC[C@@H]1OC(=O)N2c3ccc(-c4cnc(C#N)nc4)cc3OC[C@@H]12 | 0.5 (≈ 1.37 µM) | 2 (≈ 5.47 µM) | 2 (≈ 5.47 µM) | 1 (≈ 2.74 µM) | 1 (≈ 2.74 µM)
CC(=O)NC[C@@H]1OC(=O)N2c3cc(F)c(-c4ccncc4)cc3OC[C@@H]12 | 2 (≈ 5.6 µM) | 8 (≈ 22.4 µM) | 8 (≈ 22.4 µM) | 2 (≈ 5.6 µM) | 4 (≈ 11.2 µM)
CC(=O)NC[C@@H]1OC(=O)N2c3cc(F)c(-c4cccnc4)cc3OC[C@@H]12 | 1 (≈ 2.8 µM) | 2 (≈ 5.6 µM) | 2 (≈ 5.6 µM) | 2 (≈ 5.6 µM) | 1 (≈ 2.8 µM)
CC(=O)NC[C@@H]1OC(=O)N2c3cc(F)c(-c4ccc(C#N)nc4)cc3OC[C@@H]12 | 1 (≈ 2.62 µM) | 2 (≈ 5.23 µM) | 2 (≈ 5.23 µM) | 2 (≈ 5.23 µM) | 1 (≈ 2.62 µM)
CC(=O)NC[C@@H]1OC(=O)N2c3ccc(-c4ccc(NC(C)=O)nc4)cc3OC[C@@H]12 | 1 (≈ 2.52 µM) | 1 (≈ 2.52 µM) | 1 (≈ 2.52 µM) | 0.5 (≈ 1.26 µM) | 0.5 (≈ 1.26 µM)
CC(=O)NC[C@@H]1OC(=O)N2c3ccc(-c4ccc(-c5nnn(C)n5)nc4)cc3OC[C@@H]12 | 0.5 (≈ 1.19 µM) | 1 (≈ 2.37 µM) | 0.5 (≈ 1.19 µM) | 0.5 (≈ 1.19 µM) | 0.5 (≈ 1.19 µM)
CC(=O)NC[C@@H]1OC(=O)N2c3ccc(-c4ccc(-c5noc(C)n5)nc4)cc3OC[C@@H]12 | 0.5 (≈ 1.19 µM) | 1 (≈ 2.37 µM) | 1 (≈ 2.37 µM) | 0.25 (≈ 0.593 µM) | 0.5 (≈ 1.19 µM)
CC(=O)NC[C@@H]1OC(=O)N2c3ccc(-c4ccc(CC#N)nc4)cc3OC[C@@H]12 | 0.25 (≈ 0.661 µM) | 0.5 (≈ 1.32 µM) | 0.5 (≈ 1.32 µM) | 0.25 (≈ 0.661 µM) | 0.25 (≈ 0.661 µM)
CC(=O)NC[C@@H]1OC(=O)N2c3ccc(-c4ccc(N5CCNCC5)nc4)cc3OC[C@@H]12 | 0.5 (≈ 1.18 µM) | 0.5 (≈ 1.18 µM) | 1 (≈ 2.36 µM) | 0.5 (≈ 1.18 µM) | 1 (≈ 2.36 µM)
CC(=O)NC[C@@H]1OC(=O)N2c3ccc(-c4ccc(C(=O)N(C)C)nc4)cc3OC[C@@H]12 | 1 (≈ 2.44 µM) | 2 (≈ 4.87 µM) | 2 (≈ 4.87 µM) | 2 (≈ 4.87 µM) | 1 (≈ 2.44 µM)
CC(=O)NC[C@@H]1OC(=O)N2c3ccc(-c4ccc(-n5cncn5)nc4)cc3OC[C@@H]12 | 1 (≈ 2.46 µM) | 2 (≈ 4.92 µM) | 2 (≈ 4.92 µM) | 0.5 (≈ 1.23 µM) | 1 (≈ 2.46 µM)
CC(=O)NC[C@@H]1OC(=O)N2c3ccc(-c4ccc(C(F)(F)F)nc4)cc3OC[C@@H]12 | 1 (≈ 2.45 µM) | 2 (≈ 4.91 µM) | 2 (≈ 4.91 µM) | 2 (≈ 4.91 µM) | 1 (≈ 2.45 µM)
COC(=O)c1ccc(-c2ccc3c(c2)OC[C@H]2[C@H](CNC(C)=O)OC(=O)N32)cn1 | 0.5 (≈ 1.26 µM) | 1 (≈ 2.52 µM) | 1 (≈ 2.52 µM) | 0.5 (≈ 1.26 µM) | 0.5 (≈ 1.26 µM)
CC(=O)NC[C@@H]1OC(=O)N2c3ccc(-c4cncc(C#N)c4)cc3OC[C@@H]12 | 0.5 (≈ 1.37 µM) | 1 (≈ 2.74 µM) | 0.5 (≈ 1.37 µM) | 0.5 (≈ 1.37 µM) | 0.5 (≈ 1.37 µM)
CC(=O)NC[C@@H]1OC(=O)N2c3ccc(-c4ccc(C#N)cn4)cc3OC[C@@H]12 | 1 (≈ 2.74 µM) | 2 (≈ 5.49 µM) | 2 (≈ 5.49 µM) | 2 (≈ 5.49 µM) | 1 (≈ 2.74 µM)
